One data set has as its system HeLa. Kind of data set: cells. As to conditions: Homo sapiens, 72 h.
The test system of a further data set is HCT-116. Kind of data set: cells. The settings on record: Homo sapiens, HCT-116, 72 h.
Data set [1] concerns MCF7. The data set can be described thus: cells. As to conditions: Homo sapiens, MCF7, 72 h.
Description: Antiproliferative activity against human MCF7 cells assessed as reduction in cell proliferation incubated for 72 hrs by MTT assay
Data set [2] has as its system MCF7. The data set can be described thus: Inhibition of colony formation in human MCF7 cells assessed as reduction in colony formation at […] preincubated with compound for 24 hrs followed by replacement with DMEM medium and measured after 2 weeks by crystal violet staining based analysis relative to control. The settings on record: dose 2.5 µM. Type of data set: functional.

Data set [3] can be described thus: Selectivity index, ratio of IC50 for human HaCaT cells to IC50 for human HCT-116 cells. Type of data set: toxicity. As to conditions: HaCaT cells versus HCT-116 cells, read-out: Ratio IC50.
The nature of data set [4]: Selectivity index, ratio of IC50 for human HaCaT cells to IC50 for human MCF7 cells. Type of data set: toxicity. As to conditions: HaCaT cells versus MCF7 cells, read-out: Ratio IC50.
For data set [5], the system named is MCF7. The data set can be described thus: Inhibition of colony formation in human MCF7 cells assessed as reduction in colony formation at 5 uM preincubated with compound for 24 hrs followed by replacement with DMEM medium and measured after 2 weeks by crystal violet staining based analysis relative to control. The class given is functional.
The test system of data set [6] is MCF7. The data set can be described thus: Induction of apoptosis in human MCF7 cells assessed as increase in caspase activity at 10 uM preincubated for 48 hrs followed by carboxyfluorescein-labeled fluoro-methyl ketone peptide addition and measured after 1 hrs by fluorescence based analysis relative to control. The class given is functional.
Data set [7] relates to MCF7. The data set can be described thus: Induction of apoptosis in human MCF7 cells assessed as total apoptotic cells at 10 uM incubated for 72 hrs by Annexin V-PE/7-AAD staining based flow cytometric analysis relative to control. The class given is functional.
The nature of data set [8]: Selectivity index, ratio of IC50 for human HaCaT cells to IC50 for human HeLa cells. The class given is toxicity. As to conditions: HaCaT cells versus HeLa cells, read-out: Ratio IC50.
Data set [9] relates to MCF7. Kind of data set: Antiproliferative activity against human MCF7 cells assessed as reduction in cell proliferation incubated for 48 hrs by MTT assay. Type of data set: functional, cell-based. As to conditions: MCF7, 48 h. In general terms: Formazan colour is commonly taken as a measure of viable cells.
For the next data set, the target named is Carbonic anhydrase 12 (Homo sapiens, UniProt O43570). The data set can be described thus: Inhibition of human carbonic anhydrase XII assessed as inhibition constant incubated for 15 mins by stopped flow CO2-hydrase assay.
Data set [10] has as its system MCF7. Kind of data set: Effect on apoptosis in human MCF7 cells assessed as fold decrease in apoptotic cells at 10 uM preincubated with U0126 for 1 hrs followed by compound addition and measured after 72 hrs by Annexin V-PE/7-AAD staining based flow cytometric analysis. The class given is functional. For orientation: In flow cytometry, cells or beads pass a laser one at a time.

The target in the next data set is Carbonic anhydrase 9 (Homo sapiens, UniProt Q16790). Kind of data set: Inhibition of human carbonic anhydrase IX assessed as inhibition constant incubated for 15 mins by stopped flow CO2-hydrase assay.
Another data set has as its target Carbonic anhydrase 1 (Homo sapiens, UniProt P00915). The data set can be described thus: Inhibition of human carbonic anhydrase I assessed as inhibition constant incubated for 15 mins by stopped flow CO2-hydrase assay.
Data set [11] concerns MCF7. Kind of data set: Antiproliferative activity against human MCF7 cells assessed as reduction in cell proliferation incubated for 24 hrs by MTT assay. Type of data set: functional, cell-based. The settings on record: MCF7, 24 h.
Another data set can be described thus: in vitro. The settings on record: human, HaCaT cells.
Another data set concerns the target Carbonic anhydrase 2 (Homo sapiens, UniProt P00918). The data set can be described thus: Inhibition of human carbonic anhydrase II assessed as inhibition constant incubated for 15 mins by stopped flow CO2-hydrase assay.

Sequence of Carbonic anhydrase 12 (O43570 whole entry): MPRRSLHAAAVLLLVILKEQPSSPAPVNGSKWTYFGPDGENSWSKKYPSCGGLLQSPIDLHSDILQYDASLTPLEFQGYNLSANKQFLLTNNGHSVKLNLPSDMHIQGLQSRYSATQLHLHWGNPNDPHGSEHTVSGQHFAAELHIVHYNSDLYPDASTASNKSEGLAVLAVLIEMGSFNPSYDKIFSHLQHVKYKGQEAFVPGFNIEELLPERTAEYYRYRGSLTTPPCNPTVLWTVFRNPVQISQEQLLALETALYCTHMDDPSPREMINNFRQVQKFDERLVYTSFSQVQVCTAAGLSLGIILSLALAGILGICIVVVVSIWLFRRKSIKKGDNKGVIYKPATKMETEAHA
Sequence of Carbonic anhydrase 1 (P00915 whole entry): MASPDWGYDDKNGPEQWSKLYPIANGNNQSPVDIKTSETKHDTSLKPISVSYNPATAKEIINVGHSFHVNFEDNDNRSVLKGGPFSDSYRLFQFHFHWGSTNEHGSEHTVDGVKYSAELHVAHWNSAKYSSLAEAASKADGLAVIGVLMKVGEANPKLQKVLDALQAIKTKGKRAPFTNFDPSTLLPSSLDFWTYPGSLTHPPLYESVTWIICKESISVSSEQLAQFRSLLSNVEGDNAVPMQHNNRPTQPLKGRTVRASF
Description for HCT-116: Antiproliferative activity against human HCT-116 cells assessed as reduction in cell proliferation incubated for 72 hrs by MTT assay
Description for HeLa: Antiproliferative activity against human HeLa cells assessed as reduction in cell proliferation incubated for 72 hrs by MTT assay
Description for in vitro: Cytotoxicity against human HaCaT cells assessed as reduction in cell proliferation incubated for 72 hrs by MTT assay

As usually defined, the IC50 is the point on the concentration scale where inhibition reaches its midpoint. As to `NNC(=O)c1cc(S(N)(=O)=O)c(Cl)cc1SCc1ccccc1`, the IC50 with HeLa is 350 µM; in the data set on HCT-116, 155 µM; in the data set on MCF7 [1], 105 µM.

A word on the inhibition: it is the change of the read-out against control, counted positive when it falls. The term Ki denotes the dissociation constant of the complex between target and ligand, obtained from inhibition or displacement. Consider `NS(=O)(=O)c1cc(C(=O)N/N=C/c2ccc(Br)cc2O)c(SCc2ccc(F)cc2)cc1Cl`, for which the IC50 was 18 µM with HeLa; 6 µM with HCT-116; 6 µM in the data set on MCF7 [9]; 6 µM in the data set on MCF7 [1]; 90 µM in the data set on MCF7 [11]. In addition, the inhibition at […] in the data set with MCF7 [2] was 65%. Further, the results for the selectivity ratio in [3], in [4] and in [8] were 5.5, 5.5 and 1.8, respectively. Further, the inhibition at 5 µM with MCF7 [5] is 80%. Besides, the Activity in the data set on MCF7 [6] is on record as 30%; with MCF7 [7] it was 60%. Moreover, the Ki at Carbonic anhydrase 12 was 695 nM; at Carbonic anhydrase 9 it was 852 nM; on Carbonic anhydrase 1, 537 nM; on Carbonic anhydrase 2, 646 nM. For the same compound, the “fold change (FC)” value in the data set with MCF7 [10] stood at 2.2. In addition, in “in vitro”, the IC50 at 72 h came to 33 µM.

As to `NS(=O)(=O)c1cc(C(=O)N/N=C/c2ccc(Br)cc2O)c(SCc2ccccc2)cc1Cl`, the IC50 turned out to be 16 µM in the data set with HeLa, 6 µM in the data set on MCF7 [9], 4 µM in the data set on MCF7 [1] and 98 µM in the data set with MCF7 [11]. Moreover, the inhibition at […] in the data set with MCF7 [2] was determined as 80%. The selectivity ratio in [4] was 8.2; in data set [8] it was 2. Besides, in the data set with MCF7 [5], the inhibition at 5 µM was determined as 85%. Also, the figures for the Activity in the data set with MCF7 [6] and in the data set with MCF7 [7] were 30% and 65%, respectively. In addition, the Ki at Carbonic anhydrase 12 was 82.2 nM; on Carbonic anhydrase 9, 85.7 nM; on Carbonic anhydrase 1, 328 nM; at Carbonic anhydrase 2 it was 41.1 nM. Moreover, in the data set on MCF7 [10], the “fold change (FC)” value is 2.

As to `NS(=O)(=O)c1cc(C(=O)N/N=C/c2ccc(O)cc2O)c(SCc2ccccc2)cc1Cl`, the half-inhibitory concentration (IC50) was determined as 29 µM in the data set on HeLa, 14 µM in the data set with HCT-116 and 22 µM in the data set with MCF7 [1]. Further, the values for the selectivity ratio in [3], in data set [4] and in [8] were 4.1, 2.6 and 2, respectively. Also, the Ki at Carbonic anhydrase 12 worked out at 56.8 nM; on Carbonic anhydrase 9, 58.1 nM; at Carbonic anhydrase 1, 144 nM; at Carbonic anhydrase 2, 49.1 nM. In the data set “in vitro”, this compound registered an IC50 at 72 h of 58 µM.

For `NNC(=O)c1cc(S(N)(=O)=O)c(Cl)cc1SCc1ccc(F)cc1`, the figures for the IC50 with HeLa, with HCT-116 and with MCF7 [1] were 36 µM, 18 µM and 24 µM, respectively. The figures for the selectivity ratio in data set [3], in [4] and in data set [8] were 3.6, 2.7 and 1.8, respectively. This compound also displayed an IC50 at 72 h in the data set “in vitro” of 65 µM.

In the case of `NS(=O)(=O)c1cc(C(=O)N/N=C/c2ccc(O)cc2O)c(SCc2ccc(F)cc2)cc1Cl`, the IC50 was 28 µM in the data set on HeLa, 11.5 µM in the data set on HCT-116 and 25 µM with MCF7 [1]. The selectivity ratio was determined as 2.9 in data set [3], 1.2 in [4] and 1.1 in data set [8]. Besides, the Ki at Carbonic anhydrase 12 was found to be 80.3 nM; on Carbonic anhydrase 9, 80.1 nM; at Carbonic anhydrase 1, 80.7 nM; on Carbonic anhydrase 2, 56.1 nM. This compound also yielded an IC50 at 72 h in the data set “in vitro” of 32 µM.

The values above are taken from ChEMBL document CHEMBL6092197, “Novel benzenesulfonamide-aroylhydrazone conjugates as carbonic anhydrase inhibitors that induce MAPK/ERK-mediated cell cycle arrest and mitochondrial-associated apoptosis in MCF-7 breast cancer cells” (Bioorg Med Chem, 2024).
